biological target: EGFR (human) (UniProt P00533)
Sequence (P00533 whole entry, looked up): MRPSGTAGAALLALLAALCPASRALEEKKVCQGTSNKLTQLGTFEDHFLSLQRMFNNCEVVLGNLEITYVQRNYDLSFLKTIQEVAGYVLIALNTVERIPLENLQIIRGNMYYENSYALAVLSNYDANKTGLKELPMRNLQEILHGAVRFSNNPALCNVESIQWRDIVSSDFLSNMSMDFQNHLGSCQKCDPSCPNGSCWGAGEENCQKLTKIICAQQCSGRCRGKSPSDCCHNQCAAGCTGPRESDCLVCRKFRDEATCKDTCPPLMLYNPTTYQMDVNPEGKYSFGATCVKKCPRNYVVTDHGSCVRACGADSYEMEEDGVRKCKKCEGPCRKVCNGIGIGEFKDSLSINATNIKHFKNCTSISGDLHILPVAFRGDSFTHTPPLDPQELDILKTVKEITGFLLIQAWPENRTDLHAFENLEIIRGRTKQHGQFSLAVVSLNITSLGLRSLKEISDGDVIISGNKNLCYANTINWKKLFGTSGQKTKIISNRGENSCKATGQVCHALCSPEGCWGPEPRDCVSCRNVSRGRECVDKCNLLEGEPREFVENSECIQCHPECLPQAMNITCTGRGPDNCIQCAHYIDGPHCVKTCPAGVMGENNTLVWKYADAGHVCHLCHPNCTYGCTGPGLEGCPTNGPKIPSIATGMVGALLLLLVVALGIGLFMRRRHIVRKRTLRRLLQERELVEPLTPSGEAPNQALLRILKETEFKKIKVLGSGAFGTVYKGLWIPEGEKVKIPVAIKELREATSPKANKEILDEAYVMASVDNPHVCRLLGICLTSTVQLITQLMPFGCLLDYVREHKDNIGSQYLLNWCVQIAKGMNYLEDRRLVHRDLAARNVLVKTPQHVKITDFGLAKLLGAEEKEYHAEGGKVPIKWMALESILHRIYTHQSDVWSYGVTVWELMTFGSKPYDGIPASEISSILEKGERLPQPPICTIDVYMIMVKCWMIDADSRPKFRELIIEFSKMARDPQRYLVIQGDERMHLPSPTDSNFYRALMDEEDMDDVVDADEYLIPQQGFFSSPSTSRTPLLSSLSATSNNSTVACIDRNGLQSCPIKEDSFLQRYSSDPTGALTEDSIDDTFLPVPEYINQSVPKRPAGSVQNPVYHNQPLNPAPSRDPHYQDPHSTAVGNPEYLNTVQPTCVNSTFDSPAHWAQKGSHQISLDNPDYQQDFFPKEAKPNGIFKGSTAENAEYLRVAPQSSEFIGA

IC50, > 10 µM:
CCOC(=O)Nc1ccc(Nc2ncnc3cc(OCCN(CC)CC)c(OC)cc23)cc1Cl, CCOC(=O)Nc1ccc(Nc2ncnc3cc(OCCN(CC)CC)c(OC)cc23)cc1C, CCOC(=O)Nc1ccc(Nc2ncnc3cc(OC)c(OCCN(CC)CC)cc23)cc1C, CCCC(=O)Nc1ccc(Nc2ncnc3cc(OC)c(OC)cc23)cc1C, COc1cc2ncnc(Nc3ccc(NC(=O)Nc4ccccc4)cc3)c2cc1OC, COc1ccc(NC(=O)Nc2cccc(Oc3ncnc4cc(OC)c(OC)cc34)c2)cc1, COc1cc2ncnc(Oc3ccc(NC(=O)Nc4ccc(F)c(Cl)c4)cc3)c2cc1OC, COc1cc2ncnc(Oc3ccc(NC(=O)Nc4ccc(F)cc4F)cc3)c2cc1OC, CCOC(=O)Nc1ccc(Nc2ncnc3cc(OC)c(OC)cc23)cc1, COC(=O)Nc1ccc(Oc2ncnc3cc(OC)c(OC)cc23)cc1, COc1cc2ncnc(Oc3ccc(NC(=O)Nc4ccc(Br)cc4)cc3)c2cc1OC, COc1cc2ncnc(Oc3ccc(NC(=O)Nc4ccccc4)cc3)c2cc1OC, COc1cc2ncnc(Oc3ccc(NC(=O)Nc4ccc5ccccc5c4)cc3)c2cc1OC, COc1cc2ncnc(Nc3ccc(NC(=O)Nc4ccc(F)c(Cl)c4)cc3)c2cc1OC, CCOC(=O)Nc1ccc(Oc2ncnc3cc(OC)c(OC)cc23)cc1, CCCCC(=O)Nc1ccc(Nc2ncnc3cc(OC)c(OC)cc23)cc1C, CCCCOc1cc2c(Nc3ccc(NC(=O)OCC)c(C)c3)ncnc2cc1OCCN(CC)CC, COc1cc2ncnc(Oc3cccc(NC(=O)Nc4ccccc4)c3)c2cc1OC, COc1cc2ncnc(Oc3ccc(NC(=O)NC4CCCCC4)cc3)c2cc1OC, COc1cc2ncnc(Oc3ccc(F)c(Cl)c3)c2cc1OC, CCCCNC(=O)Nc1ccc(Oc2ncnc3cc(OC)c(OC)cc23)cc1, COc1ccc(NC(=O)Nc2ccc(Oc3ncnc4cc(OC)c(OC)cc34)cc2)cc1

From the Kinase Knowledgebase extract (Sharma et al. 2016)
